In patent publication US11873298B2, “Compounds and uses thereof” (JANSSEN PHARMACEUTICA NV, priority 2017, dated 2024):

Legend:
[1] = biological target: T1, SCD5 (Homo sapiens, UniProt Q86SK9); assay: Growth inhibition of humanized yeast strain expressing SCD5 as sole desaturase; assay type: cell-based
T1 construct: host or cells: S. cerevisiae ole1Δ strain (W303 pdr1Δ pdr3Δ background), plasmid pRS316 with TDH3 promoter and CYC1 terminator
T1 sequence (Q86SK9 1-330): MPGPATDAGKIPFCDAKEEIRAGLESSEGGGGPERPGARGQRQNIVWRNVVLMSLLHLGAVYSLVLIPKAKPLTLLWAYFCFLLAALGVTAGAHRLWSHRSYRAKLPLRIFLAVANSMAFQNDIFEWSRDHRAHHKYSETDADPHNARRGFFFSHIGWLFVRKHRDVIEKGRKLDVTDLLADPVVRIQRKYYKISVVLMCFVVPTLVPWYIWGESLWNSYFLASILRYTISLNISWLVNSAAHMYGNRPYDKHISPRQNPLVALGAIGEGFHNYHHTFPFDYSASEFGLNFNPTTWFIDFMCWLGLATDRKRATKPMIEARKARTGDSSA
In short: (§1)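 OD600 growth read-out. ole1Δ yeast, pdr1Δ pdr3Δ, with Ole1/SCD1/SCD5 on a plasmid; SX-Ura media throughout; 2× cell density 0.02 in CSM-Galactose; DMSO compound dilutions; humidified 30° C.; Ole1 stopped at 24 h, SCD1/SCD5 at 40 h.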

[2] = biological target: T2, SCD1 (Homo sapiens, UniProt O00767); assay: Growth inhibition of humanized yeast strain expressing SCD1 as sole desaturase; assay type: cell-based
T2 construct: host or cells: S. cerevisiae ole1Δ strain (W303 pdr1Δ pdr3Δ background), plasmid pRS316 with TDH3 promoter and CYC1 terminator
T2 sequence (O00767 1-359): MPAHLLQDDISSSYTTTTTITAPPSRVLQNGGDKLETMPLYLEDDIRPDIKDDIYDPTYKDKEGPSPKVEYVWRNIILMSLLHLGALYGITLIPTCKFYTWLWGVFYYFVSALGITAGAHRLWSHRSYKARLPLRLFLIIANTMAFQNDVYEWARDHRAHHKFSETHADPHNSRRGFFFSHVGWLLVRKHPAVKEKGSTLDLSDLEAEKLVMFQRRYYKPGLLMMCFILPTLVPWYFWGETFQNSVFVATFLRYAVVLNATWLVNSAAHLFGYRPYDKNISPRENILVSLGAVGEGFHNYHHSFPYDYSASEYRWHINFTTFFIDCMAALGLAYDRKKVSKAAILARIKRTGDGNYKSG
In short: as §1

[3] = growth inhibition of humanized yeast strain expressing human SCD5
[4] = growth inhibition of humanized yeast strain expressing human SCD1
[5] = humanized yeast strain expressing SCD5
[6] = humanized yeast strain expressing SCD1

SMILES | IC50 ([1]; humanized yeast strain, 40 h) | IC50 ([2]; humanized yeast strain, 40 h) | other results
CC(=O)N1CC(n2ncc3ccc(-c4nc(C5CCN(C(=O)OC(C)(C)C)CC5)no4)cc32)C1 [Compound 861] | 0.01 µM | 15 µM | 
CC(C)n1ncc2ccc(-c3nnc(C4CCN(C(=O)OC(C)(C)C)CC4)o3)cc21 [Compound 849] | 0.644 µM | > 45 µM | 
CC(C)(C)OC(=O)N1C[C@@H]2[C@H](C1)[C@H]2C(=O)NCc1ccc(C#N)cc1 [Compound 770] | > 45 µM | > 45 µM | 
O=C(c1ccccc1)N1CCN(c2noc(-c3ccc4cnn(C5COC5)c4c3)n2)CC1 [Compound 712] |  |  | IC50 [1, 3]: 0.016 µM; IC50 [2, 4]: > 45 µM
CC(C)(C)OC(=O)N1CCC(c2noc(-c3cccc(C4CCOC4)n3)n2)CC1 (stereo not shown) [Compound 1189] | 7.72 µM | > 45 µM | 
CC(C)n1ncc2ccc(-c3noc(C4CCN(C(=O)C(C)(C)C#N)CC4)n3)cc21 [Compound 717] |  |  | IC50 [1, 3]: 1.7 µM; IC50 [2, 4]: > 45 µM
CC(C)(C)OC(=O)N1CCC(c2nc(-c3ccc4cnn(C5COC5)c4c3)ns2)CC1 [Compound 621] |  |  | IC50 [1, 3]: 0.042 µM; IC50 [2, 4]: > 45 µM
CC(C)(C)OC(=O)N1CCC(c2nc(-c3cccc(C(=O)C4COC4)c3)no2)CC1 [Compound 796] | 1.59 µM | > 45 µM | 
O=C(C1CCC1)N1CCC(c2noc(-c3cccc(N4CCOCC4)n3)n2)CC1 [Compound 1103] | 23.4 µM | > 45 µM | 
CC(C)(C)OC(=O)N1CCC(c2nc(-c3ccc4cnn([C@H]5C[C@](C)(O)C5)c4c3)no2)CC1 [Compound 821] | 5.06 µM | > 45 µM | 
CC(C)n1ncc2ccc(-c3nc(C4CCN(C(=O)c5ncccn5)CC4)no3)cc21 [Compound 716] |  |  | IC50 [1, 3]: > 45 µM; IC50 [2, 4]: > 45 µM
CC(C)(C)C(=O)N1CC2(CC(c3noc(-c4ccc5cnn(C6COC6)c5c4)n3)C2)C1 [Compound 1033] | 3.91 µM | > 45 µM | 
COC(=O)N1CCC(c2noc(-c3ccc4cnn(C5CNC5)c4c3)n2)CC1 [Compound 948] | > 45 µM | > 45 µM | 
CC(C)(C)OC(=O)N1C[C@@H]2[C@H](C1)[C@H]2NC(=O)c1ccc2cnn(C3COC3)c2c1 [Compound 814] | > 45 µM | > 45 µM | 
CC(C)c1ncn2ccc(-c3noc(C4CCN(C(=O)OC(C)(C)C)CC4)n3)cc12 [Compound 866] | 4.61 µM | > 45 µM | 
O=C(c1ncccc1F)N1CCN(c2noc(-c3ccc4cnn(C5COC5)c4c3)n2)CC1 [Compound 972] | 4.44 µM | > 45 µM | 
O=C(CC1CC1)N1CCN(c2noc(-c3ccc4cnn(C5COC5)c4c3)n2)CC1 [Compound 839] | 0.035 µM | > 45 µM | 
COC(=O)N1CCC(c2noc(-c3ccc4ccn(C(C)C)c4c3)n2)CC1 [Compound 1037] | 0.457 µM | 10.2 µM | 
CC(C)(C)OC(=O)N1CCC(c2nc(-c3ccn4cnc(C#N)c4c3)no2)CC1 [Compound 833] | > 45 µM | > 45 µM | 
CC(C)n1ncc2ccc(-c3noc(C4CCN(C(=O)N5CCCC5(C)CO)CC4)n3)cc21 (stereo not shown) [Compound 687] |  |  | IC50 [1, 3]: > 45 µM; IC50 [2, 4]: > 45 µM
CC(=O)NCCc1nn(C(C)C)c2cc(-c3noc(C4CCN(C(=O)OC(C)(C)C)CC4)n3)ccc12 [Compound 760] | > 45 µM | > 45 µM | 
CN(c1cc(-c2nc(C3CCN(C(=O)C4CC4)CC3)no2)ccn1)C1COC1 [Compound 1125] | 0.523 µM | > 45 µM | 
CC(C)n1ncc2ccc(-c3noc(N4CCC(C(CO)CCl)CC4)n3)cc21 (stereo not shown) [Compound 765] | 19.3 µM | 32.9 µM | 
COC(=O)N1CCC(c2nc(-c3ccc4cnn(C5CS(=O)(=O)C5)c4c3)no2)CC1 [Compound 1014] | 4.82 µM | > 45 µM | 

SMILES | IC50 ([1]; humanized yeast strain, 40 h) | IC50 ([2]; humanized yeast strain, 40 h) | other results
O=S(=O)(C1CCC1)N1CCC(c2noc(-c3ccc4cnn(C5COC5)c4c3)n2)CC1 [Compound 969] | 1.42 µM | > 45 µM | 
O=C(c1ccccc1Cl)N1CCC(c2noc(-c3ccc4cnn(C5COC5)c4c3)n2)CC1 [Compound 697] |  |  | IC50 [1, 3]: 0.059 µM; IC50 [2, 4]: > 45 µM
O=C(N1CCC(c2noc(-c3ccc4cnn(C5COC5)c4c3)n2)CC1)C1(F)CC1 [Compound 952] | 9.22 µM | 15.6 µM | 
CC(C)(C)OC(=O)N1CCC(c2noc(-c3ccc4cnn(C5COC5)c4c3F)n2)CC1 [Compound 988] | 0.024 µM | > 45 µM | 
CC(C)n1ncc2ccc(-c3nc(C4CN(C(=O)OC(C)(C)C)C4)no3)cc21 [Compound 605] |  |  | IC50 [1, 5]: 0.513 µM; IC50 [2, 6]: 31.8 µM
O=C(C1CCC1)N1CCC(c2cc(-c3cc4c(cn3)cnn4C3COC3)on2)CC1 [Compound 1109] | 0.05 µM | > 45 µM | 
C[C@H]1C[C@H](c2noc(-c3ccc4cnn(C5COC5)c4c3)n2)CCN1C(=O)C1CCC1 [Compound 1056] | 0.00469 µM | > 45 µM | 
COC(=O)N1CCC(c2noc(-c3cc(C#N)c4cnn(C5COC5)c4c3)n2)CC1 [Compound 1085] | 0.532 µM | > 45 µM | 
Fc1c(-c2nc(C3CCNCC3)no2)ccc2cnn(C3COC3)c12 [Compound 989] | > 45 µM | > 45 µM | 
CC(C)n1ncc2ccc(-c3noc(C4CCN(C(=O)C56CC(C5)C6)CC4)n3)cc21 [Compound 705] |  |  | IC50 [1, 3]: 0.174 µM; IC50 [2, 4]: 14.4 µM
COC(=O)N1CCCN(c2noc(-c3ccc4cnn(C5COC5)c4c3)n2)CC1 [Compound 857] | 26.8 µM | > 45 µM | 
CC1(CC(=O)N2CCC(c3nc(-c4ccc5cnn(C6COC6)c5c4)ns3)CC2)CC1 [Compound 801] | 0.363 µM | > 45 µM | 
O=C(C1CC2(CC2)C1)N1CCN(c2noc(-c3ccc4cnn(C5COC5)c4c3)n2)CC1 [Compound 864] | > 45 µM | > 45 µM | 
COC(=O)N1CCC(c2noc(-c3ccc4cnn(C(CO)CO)c4c3)n2)CC1 [Compound 834] | > 45 µM | > 45 µM | 
CC(C)(C)OC(=O)N1CCC(c2nc(-c3ccnc(Cl)c3)no2)CC1 [Compound 747] | 26.8 µM | > 45 µM | 
COC(=O)N1CC2(CC(c3noc(-c4ccc5cnn(C6COC6)c5c4)n3)C2)C1 [Compound 1032] | 4.1 µM | > 45 µM | 
CC(C)C(=O)N1CCC(c2noc(-c3ccnc(-c4ccn(C)n4)c3)n2)CC1 [Compound 1184] | > 45 µM | > 45 µM | 
CC(C)(C)OC(=O)N1CCC(c2nc(-c3ccc4cn(C5CCC5)nc4c3)no2)CC1 [Compound 731] |  |  | IC50 [1, 3]: > 45 µM; IC50 [2, 4]: > 45 µM
O=C(C1CCC1)N1CCN(c2noc(-c3ccc4cnn(C5COC5)c4c3)n2)CC(F)(F)C1 [Compound 1046] | 0.01 µM | ≥ 45 µM | 
CC(C)(C)OC(=O)N1CC(c2nc(-c3ccc4cnn(C5COC5)c4c3)no2)C1 [Compound 700] |  |  | IC50 [1, 3]: 0.703 µM; IC50 [2, 4]: > 45 µM
O=C(N1CCN(c2noc(-c3ccnc(NC4COC4)c3)n2)CC1)C1(F)CC1 [Compound 1148] | 19.4 µM | > 45 µM | 
CC(C)OC(=O)N1CCC(c2nc(-c3ccc4cnn(C(C)C)c4c3)no2)CC1 [Compound 357] |  |  | IC50 [1, 5]: > 45 µM; SCD5 % Max Inhibition [1, 5]: 2.31%; SCD1 % Max Inhibition [2, 6]: 64.32%
CC(C)(C)OC(=O)N1CCC(c2ccc(-c3ccc4cnn(C5COC5)c4c3)cc2)CC1 [Compound 967] | 1.52 µM | > 45 µM | 
CC(C)(C)OC(=O)N1CCC(c2nc(-c3ccc4cnn([C@H]5CCOC5)c4c3)no2)CC1 [Compound 791] | 0.01 µM | > 45 µM | 
